Test results taken from PubChem BioAssay AID248 (DTP/NCI, 2004).
Several values for one entry are separate records, joined by “and”; a condition that tells them apart may be missing. Identical values can stand only once. Inconclusive results and toxic doses are left out. No stated cut-off is given here; in the data, active means T/C of 150% or more; inactive means T/C below 125%.

Tested on: L1210 leukemia ip in BDF1 mice, survival T/C
Assay: NCI In Vivo Anticancer Drug Screen. Data for tumor model L1210 Leukemia (intraperitoneal) in B6D2F1 (BDF1) mice
Details: higher = longer survival
How it was run: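 Each compound was tested against a transplantable tumor grown in mice. The endpoint was survival, with treated animals benchmarked against vehicle controls as a simple ratio.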

[1] = endpoint: mean survival time, dose: 25.0 mg/kg/injection, schedule: Q01DX001 (ip), vehicle: saline
[2] = endpoint: mean survival time, dose: 50.0 mg/kg/injection, schedule: Q01DX001 (ip), vehicle: saline
[3] = endpoint: mean survival time, dose: 100.0 mg/kg/injection, schedule: Q04DX003 (ip), vehicle: Klucel (hydroxypropylcellulose) (HPC)
[4] = endpoint: mean survival time, dose: 100.0 mg/kg/injection, schedule: Q01DX001 (ip), vehicle: saline

Measured: T/C

COc1cc([C@@H]2c3cc4c(cc3C[C@H]3COC(=O)[C@@H]32)OCO4)cc(OC)c1OC
inactive: endpoint: mean survival time, dose: 3.12 mg/kg/injection, schedule: Q01DX009 (ip), vehicle: saline 94 % of control | endpoint: mean survival time, dose: 6.25 mg/kg/injection, schedule: Q01DX009 (ip), vehicle: saline 109 % of control | endpoint: mean survival time, dose: 12.5 mg/kg/injection, schedule: Q01DX001 (ip), vehicle: saline 115 % of control | endpoint: mean survival time, dose: 12.5 mg/kg/injection, schedule: Q01DX009 (ip), vehicle: saline 110 % of control | [1] 115 % of control | endpoint: mean survival time, dose: 25.0 mg/kg/injection, schedule: Q01DX009 (ip), vehicle: saline 116 % of control | endpoint: mean survival time, dose: 45.0 mg/kg/injection, schedule: Q01DX001 (ip), vehicle: saline 123 % of control | endpoint: mean survival time, dose: 50.0 mg/kg/injection, schedule: Q01DX001 (ip), vehicle: other 109 % of control | endpoint: mean survival time, dose: 50.0 mg/kg/injection, schedule: Q01DX001 (ip), vehicle: saline with Tween-80 110 % of control | [2] 111 % of control and 117 % of control | endpoint: mean survival time, dose: 50.0 mg/kg/injection, schedule: Q04DX003 (ip), vehicle: saline with Tween-80 116 % of control | endpoint: mean survival time, dose: 100.0 mg/kg/injection, schedule: Q01DX001 (ip), vehicle: other 116 % of control | endpoint: median survival time, dose: 2.5 mg/kg/injection, schedule: Q01DX009 (ip), vehicle: saline 111 % of control | endpoint: median survival time, dose: 5.0 mg/kg/injection, schedule: Q01DX009 (ip), vehicle: saline 122 % of control | endpoint: median survival time, dose: 10.0 mg/kg/injection, schedule: Q01DX009 (ip), vehicle: saline 88 % of control

O=C(Sc1cccc2ccccc12)c1ccc([N+](=O)[O-])cc1
inactive: [3] 95 % of control | endpoint: mean survival time, dose: 200.0 mg/kg/injection, schedule: Q04DX003 (ip), vehicle: Klucel (hydroxypropylcellulose) (HPC) 97 % of control | endpoint: mean survival time, dose: 400.0 mg/kg/injection, schedule: Q04DX003 (ip), vehicle: Klucel (hydroxypropylcellulose) (HPC) 95 % of control

COc1cc(C)c2ccccc2n1
inactive: endpoint: mean survival time, dose: 100.0 mg/kg/injection, schedule: Q01DX001 (ip), vehicle: saline with Tween-80 100 % of control | [4] 104 % of control | endpoint: mean survival time, dose: 200.0 mg/kg/injection, schedule: Q01DX001 (ip), vehicle: saline with Tween-80 102 % of control | endpoint: mean survival time, dose: 200.0 mg/kg/injection, schedule: Q01DX001 (ip), vehicle: saline 103 % of control | endpoint: mean survival time, dose: 400.0 mg/kg/injection, schedule: Q01DX001 (ip), vehicle: saline with Tween-80 94 % of control | endpoint: mean survival time, dose: 400.0 mg/kg/injection, schedule: Q01DX001 (ip), vehicle: saline 98 % of control

CC1(C(=O)O)C2CCC(C2)C1C(=O)O (centres undefined)
inactive: endpoint: mean survival time, dose: 100.0 mg/kg/injection, schedule: Q04DX003 (ip), vehicle: saline 107 % of control | endpoint: mean survival time, dose: 200.0 mg/kg/injection, schedule: Q04DX003 (ip), vehicle: saline 102 % of control | endpoint: mean survival time, dose: 400.0 mg/kg/injection, schedule: Q04DX003 (ip), vehicle: saline 105 % of control

Cc1ccc(C)c(CNC(=O)Nc2ccccc2Cl)c1
inactive: endpoint: mean survival time, dose: 100.0 mg/kg/injection, schedule: Q01DX009 (ip), vehicle: Klucel (hydroxypropylcellulose) (HPC) 97 % of control | endpoint: mean survival time, dose: 200.0 mg/kg/injection, schedule: Q01DX009 (ip), vehicle: Klucel (hydroxypropylcellulose) (HPC) 101 % of control

Cc1nc(-c2ccc(N=Cc3ccc(N(CCOS(C)(=O)=O)CCOS(C)(=O)=O)cc3)cc2)c(C)s1
active: endpoint: mean survival time, dose: 40.0 mg/kg/injection, schedule: Q04DX003 (ip), vehicle: Klucel (hydroxypropylcellulose) (HPC) 171 % of control
inactive: endpoint: mean survival time, dose: 2.5 mg/kg/injection, schedule: Q04DX003 (ip), vehicle: Klucel (hydroxypropylcellulose) (HPC) 109 % of control | endpoint: mean survival time, dose: 5.0 mg/kg/injection, schedule: Q04DX003 (ip), vehicle: Klucel (hydroxypropylcellulose) (HPC) 111 % of control | endpoint: mean survival time, dose: 10.0 mg/kg/injection, schedule: Q04DX003 (ip), vehicle: Klucel (hydroxypropylcellulose) (HPC) 122 % of control | endpoint: mean survival time, dose: 80.0 mg/kg/injection, schedule: Q04DX003 (ip), vehicle: Klucel (hydroxypropylcellulose) (HPC) 117 % of control | [3] 100 % of control

CN1C(=O)OC2(CCN(CCCS(=O)(=O)c3ccc(F)cc3)CC2)C1=O
inactive: endpoint: mean survival time, dose: 100.0 mg/kg/injection, schedule: Q01DX001 (ip), vehicle: Klucel (hydroxypropylcellulose) (HPC) 92 % of control | endpoint: mean survival time, dose: 200.0 mg/kg/injection, schedule: Q01DX001 (ip), vehicle: Klucel (hydroxypropylcellulose) (HPC) 105 % of control | endpoint: mean survival time, dose: 400.0 mg/kg/injection, schedule: Q01DX001 (ip), vehicle: Klucel (hydroxypropylcellulose) (HPC) 93 % of control

NCCCCc1nc(N)nc(N)c1-c1ccc(Cl)cc1
inactive: [1] 104 % of control | [2] 96 % of control | [4] 102 % of control

CCCCCCC(C)CC(CCCCCC)NCCOC(=O)c1ccc([N+](=O)[O-])cc1 (centres undefined)
inactive: endpoint: mean survival time, dose: 75.0 mg/kg/injection, schedule: Q01DX001 (ip), vehicle: saline 105 % of control | endpoint: mean survival time, dose: 150.0 mg/kg/injection, schedule: Q01DX001 (ip), vehicle: saline 100 % of control | endpoint: mean survival time, dose: 300.0 mg/kg/injection, schedule: Q01DX001 (ip), vehicle: saline 121 % of control
